Data published in patent publication US8889592B2, “Insecticidal and/or herbicidal composition having improved activity based on spiroheterocyclically substituted tetramic acid derivatives” (Bayer CropScience AG, priority 2010, dated 2014).

Key:
Myzus persicae = Myzus persicae test (activity boost through ammonium salts and penetrants); type: in vivo, green peach aphid (Myzus persicae); details: for Kill (%) after 6 d +AS + RME per 1000 ppm: 1000 ppm each; for Kill (%) after 6 d: no additive, bell pepper plants, spray
Description: (§1) Solvent: 7 parts by weight of dimethylformamide
(§2) Emulsifier: 2 parts by weight of alkylaryl polyglycol ether
(§3) To produce a suitable preparation of active compound, 1 part by weight of active compound is mixed with the stated amounts of solvent and emulsifier, and the concentrate is diluted with water to the desired concentration. For application with ammonium salts or phosphonium salts and penetration promoters (rapeseed oil methyl ester 500 EW) these are in each case added in a concentration of 1000 ppm to the spray liquor.
Bell pepper plants (Capsicum annuum) heavily infested by the green peach aphid (Myzus persicae) are sprayed to runoff point with the preparation of active compound at the desired concentration.
After the desired period of time, the kill in % is determined. 100% means that all animals have been killed; 0% means that none of the animals have been killed.

[1] = Penetration through enzymatically isolated apple leaf cuticles (20° C., 60% rh); type: in vitro ADME, apple trees of the cultivar Golden Delicious; details: 0.1 g/l
Description: (§4) In this test, the penetration of active compounds through enzymatically isolated cuticles of apple tree leaves is measured.
(§5) Use is made of leaves which, when fully developed, are cut from apple trees of the cultivar Golden Delicious. The cuticles are isolated by • initially filling leaf discs punched out and stained with dye on the underside by vacuum infiltration with a pectinase solution (0.2 to 2% strength) buffered to a pH between 3 and 4, • then adding sodium azide and • allowing the leaf discs treated in this manner to stand until the original leaf structure has dissolved and the non-cellular cuticles have detached.
(§6) Only the cuticles, free from hairs and stoma, of the upper sides of the leaves are then used. They are washed repeatedly alternating with water and a buffer solution of pH 7. The clean cuticles obtained are then mounted on Teflon plates and smoothed and dried with a gentle stream of air.
(§7) In the next step, the cuticle membranes obtained in this manner are placed into stainless steel diffusion cells (=transport chambers) for membrane transport studies. To this end, the cuticles are placed with a pincette into the centre of the edges, coated with silicone fat, of the diffusion cells and closed with a ring, which is also treated with fat. The arrangement is chosen such that the morphological outside of the cuticles is facing outwards, i.e. exposed to air, whereas the original inside is facing the interior of the diffusion cell.
(§8) The diffusion cells are filled with a 30% strength ethylene glycol/water solution. To determine the penetration, in each case 10 μl of the spray liquor of the composition below are applied to the outside of the cuticles. The spray liquor is prepared using local tap water of medium hardness.
(§9) After the application of the spray liquors, the water is allowed to evaporate and the chambers are inverted and placed into thermostatic tubs in which temperature and atmospheric humidity over the cuticles can be adjusted using a gentle stream of air onto the cuticles with the spray coating (20° C., 60% rh). At regular intervals, an autosampler takes aliquots and the active compound content is determined by HPLC.
(§10) The stated numbers are average values of 8 to 10 measurements. It is clearly evident that even the ammonium salts on their own improve the penetration markedly, and that, together with RME, a superadditive (synergistic) effect is present.

LOLMU = test: Herbicidal post-emergence action; type: in vivo, Italian Ryegrass; details: 6.25 g of a.i./ha, 28 days after application
Description: (§11) Seeds of monocotyledonous weed plants are placed in sandy loam in wood fibre pots, covered with soil and cultivated in a greenhouse under good growth conditions. 3-4 weeks after sowing, the test plants are treated at the two- to three-leaf stage. The test compound, formulated as a wettable powder (WP), is then, at various dosages with a water application rate of 300 l/ha (converted), with the stated adjuvants added, sprayed onto the green parts of the plants. After the test plants have been kept in the greenhouse under optimum growth conditions for about 4 weeks, the effect of the preparations is rated visually in comparison to untreated controls (herbicidal effect in percent: 100% effect=the plants have died, 0% effect=like control plants).

[2] = Penetration through enzymatically isolated apple leaf cuticles (35° C., 60% rh); type: in vitro ADME, apple trees of the cultivar Golden Delicious; details: 0.2 g/l; for Penetration after 48 h/% EC: 500 ppm in DMF/emulsifier W 7:1 (w/w), no additive; for Penetration after 48 h/% EC + AS (0.7 g/l): with ammonium sulphate; for Penetration after 48 h/% EC + RME (1 g/l): with rapeseed oil methyl ester; for Penetration after 48 h/% EC + RME (1 g/l) + AS (0.7 g/l): with rapeseed oil methyl ester and ammonium sulphate
Description: as §4, §5, §6, §7, §8
as §9, with “(35°” for “(20°”
as §10

LOLRI = test: Herbicidal post-emergence action; type: in vivo, Annual Ryegrass (resistant); details: 6.25 g of a.i./ha, 28 days after application
Description: as §11

ALOMY (Peldon) = test: Herbicidal post-emergence action; type: in vivo, Blackgrass (resistant); details: 6.25 g of a.i./ha, 28 days after application
Description: as §11

ALOMY = test: Herbicidal post-emergence action; type: in vivo, Blackgrass (not resistant); details: 6.25 g of a.i./ha, 28 days after application
Description: as §11

Aphis gossypii = Aphis gossypii test; type: in vivo, cotton aphid (Aphis gossypii); details: for Kill (%) after 6 d +AS + RME per 1000 ppm: 1000 ppm each; for Kill (%) after 6 d: no additive, cotton plants, spray
Description: as §1, §2
as §3, with “diluted with emulsifier-containing water to” for “diluted with water to”, “1000 ppm of a.i. to the” for “1000 ppm to the”
Cotton plants (Gossypium hirsutum) which are heavily infested by the cotton aphid (Aphis gossypii) are sprayed to runoff point with the preparation of active compound at the desired concentration.
After the desired period of time, the kill in % is determined. 100% means that all aphids have been killed; 0% means that none of the aphids have been killed.

[3] = 20 ppm active compound + ammonium sulphate 1000 ppm
[4] = 20 ppm active compound + ammonium sulphate and rapeseed oil methyl ester
[5] = 20 ppm active compound + rapeseed oil methyl ester 1000 ppm
[6] = with ammonium sulphate (2 kg/ha)
[7] = with ammonium sulphate (2 kg/ha) and Genapol LRO (1 l/ha)
[8] = 4 ppm active compound + ammonium sulphate 1000 ppm
[9] = 4 ppm active compound + ammonium sulphate and rapeseed oil methyl ester
[10] = 4 ppm active compound + rapeseed oil methyl ester 1000 ppm

CON1CCC2(CC1)NC(=O)C(c1cc(C)ccc1C)=C2O [Example I-a-1]
Kill (%) after 6 d +AS 1000 ppm (Myzus persicae; [3]): 0% | Kill (%) after 6 d +AS + RME per 1000 ppm (Myzus persicae; [4]): 60% | Kill (%) after 6 d +RME 1000 ppm (Myzus persicae; [5]): 0% | Kill (%) after 6 d (Myzus persicae; 20 ppm active compound): 0% | Penetration after 24 h/% EC ([1]; 500 ppm in DMF/emulsifier W 7:1 (w/w), no additive): 0.7% | Penetration after 24 h/% EC + AS (1 g/D) ([1]; with ammonium sulphate): 17% | Penetration after 24 h/% EC + DAHP (1 g/l) ([1]; with diammonium hydrogenphosphate): 15% | Penetration after 24 h/% EC + RME (1 g/l) ([1]; with rapeseed oil methyl ester): 1.7% | Penetration after 24 h/% EC + RME (1 g/l) + AS (1 g/l) ([1]; with rapeseed oil methyl ester and ammonium sulphate): 21% | Penetration after 24 h/% EC + RME (1 g/l) + DAHP (1 g/l) ([1]; with rapeseed oil methyl ester and diammonium hydrogenphosphate): 28%

CCc1cc(C)cc(CC)c1C1=C(O)C2(CCN(OC)CC2)NC1=O [Example I-a-3]
herbicidal effect, a.i. + GE (LOLMU; with Genapol LRO (1 l/ha)): 50% | herbicidal effect, a.i. + AS (LOLMU; [6]): 40% | herbicidal effect, a.i. + AS + GE (LOLMU; [7]): 80% | herbicidal effect, a.i. (LOLMU; post-emergence, no adjuvant): 20% | Penetration after 48 h/% EC [2]: 1% | Penetration after 48 h/% EC + AS (0.7 g/l) [2]: 9% | Penetration after 48 h/% EC + RME (1 g/l) [2]: 9% | Penetration after 48 h/% EC + RME (1 g/l) + AS (0.7 g/l) [2]: 33% | herbicidal effect, a.i. + GE (LOLRI; with Genapol LRO (1 l/ha)): 20% | herbicidal effect, a.i. + AS (LOLRI; [6]): 0% | herbicidal effect, a.i. + AS + GE (LOLRI; [7]): 60% | herbicidal effect, a.i. (LOLRI; post-emergence, no adjuvant): 0% | herbicidal effect, a.i. + GE (ALOMY (Peldon); with Genapol LRO (1 l/ha)): 20% | herbicidal effect, a.i. + AS (ALOMY (Peldon); [6]): 0% | herbicidal effect, a.i. + AS + GE (ALOMY (Peldon); [7]): 60% | herbicidal effect, a.i. (ALOMY (Peldon); post-emergence, no adjuvant): 0% | herbicidal effect, a.i. + GE (ALOMY; with Genapol LRO (1 l/ha)): 70% | herbicidal effect, a.i. + AS (ALOMY; [6]): 0% | herbicidal effect, a.i. + AS + GE (ALOMY; [7]): 90% | herbicidal effect, a.i. (ALOMY; post-emergence, no adjuvant): 0%

CCON1CCC2(CC1)NC(=O)C(c1c(C)cc(C)cc1C)=C2O [Example I-a-4]
Penetration after 48 h/% EC [2]: 0% | Penetration after 48 h/% EC + AS (0.7 g/l) [2]: 3% | Penetration after 48 h/% EC + RME (1 g/l) [2]: 6% | Penetration after 48 h/% EC + RME (1 g/l) + AS (0.7 g/l) [2]: 17%

CON1CCC2(CC1)NC(=O)C(c1c(C)cc(C)cc1C)=C2O [I-a-2]
Kill (%) after 6 d +AS 1000 ppm (Myzus persicae; 0.8 ppm active compound + ammonium sulphate 1000 ppm): 0% | Kill (%) after 6 d +AS + RME per 1000 ppm (Myzus persicae; 0.8 ppm active compound + ammonium sulphate and rapeseed oil methyl ester): 90% | Kill (%) after 6 d +RME 1000 ppm (Myzus persicae; 0.8 ppm active compound + rapeseed oil methyl ester 1000 ppm): 0% | Kill (%) after 6 d (Myzus persicae; 0.8 ppm active compound): 0% | Kill (%) after 6 d +AS 1000 ppm (Myzus persicae; [8]): 55% | Kill (%) after 6 d +AS + RME per 1000 ppm (Myzus persicae; [9]): 95% | Kill (%) after 6 d +RME 1000 ppm (Myzus persicae; [10]): 60% | Kill (%) after 6 d (Myzus persicae; 4 ppm active compound): 0% | Kill (%) after 6 d +AS 1000 ppm (Aphis gossypii; [8]): 0% | Kill (%) after 6 d +AS + RME per 1000 ppm (Aphis gossypii; [9]): 90% | Kill (%) after 6 d +RME 1000 ppm (Aphis gossypii; [10]): 40% | Kill (%) after 6 d (Aphis gossypii; 4 ppm active compound): 0% | Kill (%) after 6 d +AS 1000 ppm (Aphis gossypii; [3]): 85% | Kill (%) after 6 d +AS + RME per 1000 ppm (Aphis gossypii; [4]): 95% | Kill (%) after 6 d +RME 1000 ppm (Aphis gossypii; [5]): 95% | Kill (%) after 6 d (Aphis gossypii; 20 ppm active compound): 0%

CCOC(=O)OC1=C(c2cc(C)ccc2C)C(=O)NC12CCN(OC)CC2 [I-c-1]
Kill (%) after 6 d +AS 1000 ppm (Myzus persicae; [3]): 0% | Kill (%) after 6 d +AS + RME per 1000 ppm (Myzus persicae; [4]): 98% | Kill (%) after 6 d +RME 1000 ppm (Myzus persicae; [5]): 20% | Kill (%) after 6 d (Myzus persicae; 20 ppm active compound): 0% | Kill (%) after 6 d +AS 1000 ppm (Aphis gossypii; [3]): 0% | Kill (%) after 6 d +AS + RME per 1000 ppm (Aphis gossypii; [4]): 90% | Kill (%) after 6 d +RME 1000 ppm (Aphis gossypii; [5]): 80% | Kill (%) after 6 d (Aphis gossypii; 20 ppm active compound): 0%
